{"source": "patent US20240361338A1", "about": "“DIAGNOSIS AND TREATMENT OF ECTOPIC ENDOMETRIOSIS” (FERRING B.V., priority 2021, published 2024)", "key": {"ectopic EMSCs": {"test_system": "ectopic EMSCs", "assay": "BrdU cell proliferation assay on E-MSCs", "assay_type": "cell-based, human", "details": "different concentrations, after 24 hours", "protocol": "(§1) FIG. 3: Quinagolide effect on EMSCs apoptosis and proliferation. A: Quinagolide concentration-response curve on ectopic EMSCs in both apoptosis (N=1) and proliferation (N=2) assays. B: Effect of two selected quinagolide doses (10^−5 and 10^−7M) on HUVECs (N=1) and ectopic E-MSCs (N=3) apoptosis and proliferation assays (N=2). Data are represented as mean±SD of the indicated number of experiments and normalized to untreated cells (Control). Cells were plated in growth medium at a concentration of 2,500 HUVECs/well and 3,000 E-MSCs/well in a 96-multiwell plate. The day after quinagolide was added to the growth medium at different concentrations after 24 hours. Deoxyribonucleic acid synthesis was detected as incorporation of 5-bromo-2-deoxyuridine (BrdU) into the cellular DNA after 48 hours from cell plaiting, using an enzyme-linked assay kit (Chemicon). Untreated cells were used as control. Data are expressed as the mean±standard deviation (SD) of the media of absorbance of at least three different experiments and normalized to control."}, "HUVECs [1]": {"test_system": "HUVECs", "assay": "Annexin V apoptosis assay on HUVECs", "assay_type": "cell-based, human", "details": "after 24 hours of quinagolide treatment, 10^-5 and 10^-7 M", "protocol": "FIG. 3: Quinagolide effect on EMSCs apoptosis and proliferation. A: Quinagolide concentration-response curve on ectopic EMSCs in both apoptosis (N=1) and proliferation (N=2) assays. B: Effect of two selected quinagolide doses (10^−5 and 10^−7M) on HUVECs (N=1) and ectopic E-MSCs (N=3) apoptosis and proliferation assays (N=2). Data are represented as mean±SD of the indicated number of experiments and normalized to untreated cells (Control). Annexin V assays were performed using the Muse™ Annexin V & Dead Cell Kit (Millipore), according to the manufacturer's recommendations. Briefly, 20×10^3 cells were plated and after 24 h treated with different concentrations of quinagolide. After 24, 48 and 72 hours, cells were detached and resuspended in Muse™ Annexin V & Dead Cell Kit and the percentage of apoptotic cells (Annexin V+) was measured. Data are expressed as the mean±standard deviation (SD) of the media of absorbance of at least three different experiments and normalized to control."}, "HUVECs [2]": {"test_system": "HUVECs", "assay": "BrdU cell proliferation assay on HUVECs", "assay_type": "cell-based, human", "details": "after 24 hours of quinagolide treatment, 10^-5 and 10^-7 M", "protocol": "as §1"}, "AKT": {"test_system": "AKT", "assay": "Western blot of P-AKT in E-MSC-HUVEC cocultures", "assay_type": "cell-based, human", "details": "100 nM quinagolide 24 h", "protocol": "FIG. 6: Quinagolide effect on AKT activation. A: Representative western blot analysis and quantification of AKT levels in eutopic and ectopic EMSCs treated for 48 h with 100 nM quinagolide (Q), compared to untreated cells (CTL). B: Representative western blot analysis and quantification of P-AKT levels, normalized to AKT expression, in eutopic and ectopic EMSCs treated for 48 h with 100 nM quinagolide (Q), respect to untreated cells (CTL). C: Representative western blot analysis and quantification of P-AKT levels in HUVECs, ectopic […] basal), and in […] co-culture with HUVECs, treated or not for 24 h with 100 nM quinagolide (Q100 nM). Data are represented as mean±SD of at least two independent experiments, performed on different EMSC lines, and normalized to Vinculin and to untreated cells (CTL). One-way ANOVA was performed: *=p<0.05 and **=p<0.001 vs CTL. Cell pellets were lysed at 4° C. for 15 minutes in RIPA buffer supplemented with protease and phosphatase inhibitors cocktail and PMSF (Sigma-Aldrich). Proteins were quantified using Bradford solution following the manufacturer procedures (Bio-Rad Inc., Berkely, CA, USA) and aliquots of cell lysates containing 50 μg of proteins were run on 4-12% Mini-Protean TGX Stain-Free Gels (Bio-Rad) under reducing conditions and transferred onto PVDF membrane filters using the iBLOT2 system (Life Technologies). […]"}, "endometriotic lesions": {"test_system": "endometriotic lesions", "details": "patients with severe endometriosis and hyperprolactinemia (Gomez et al, 2011); cited from earlier work"}, "[3]": {"details": "long-term prolactinoma treatment (Schultz et al., 2000; Barlier et al., 2006); cited from earlier work"}}}
{"molecule": "CCCN1C[C@@H](NS(=O)(=O)N(CC)CC)C[C@@H]2Cc3c(O)cccc3C[C@H]21", "note": "[quinagolide, N,N-diethyl-N′-[(3S,4aS,10aR)-6-hydroxy-1-propyl-1,2,3,4,4a,5,10,10a-octahydrobenzo[g]quinolin-3-yl]sulfamide]", "values": [{"measurement": "proliferation of E-MSCs (BrdU)", "setting": "ectopic EMSCs", "value": "did not affect proliferation"}, {"measurement": "apoptosis of HUVEC cells", "setting": "HUVECs [1]", "value": "did not show alteration"}, {"measurement": "proliferation of HUVEC cells", "setting": "HUVECs [2]", "value": "did not show alteration"}, {"measurement": "AKT phosphorylation", "setting": "AKT", "value": "reduced"}, {"measurement": "size of endometriotic lesions", "setting": "endometriotic lesions", "value": "reduced the size"}, {"measurement": "safety and tolerability", "setting": "[3]", "value": "safe and well-tolerated"}]}
